Source: PMC6698794, “Catalytic Knockdown of miR-21 by Artificial Ribonuclease: Biological Performance in Tumor Model” (Frontiers in Pharmacology, 2019)
Several values for one entry are separate records, joined by “and”; a condition that tells them apart may be missing. Equal entries are not always repeated. One block for each substance: values may come before it.

Tests used:
RLS40 lymphosarcoma [1] = assay: Hepatic index of mice implanted with treated RLS40 cells; format: in vivo; settings: cells treated with 1 µM; (liver weight/mouse weight) × 100%; 5.0% for healthy CBA mice; Mean ± SE
Method: (§1) RLS40 ascites were taken from CBA mice intraperitoneally injected with tumor cells (2 × 10^6 in 0.2 ml buffered saline) into their abdominal cavities. RLS40 cells, isolated from ascites fluid by filtration through LSM were divided into seven portions: 1) untreated cells; 2) the cells incubated with Lipofectamine; the cells transfected with 1 µM of 3) h-ODN, 4) 2′-OMe, 5) Inh, 6) miR-21-miRNase, or 7) luc-POC each. After 4 h of transfection, cell suspensions (0.1 ml, 2 × 10^6 cells) were intramuscularly inoculated into the right lower limb of CBA mice for solid tumor development. As soon as tumors began to be palpable, the tumor volumes were measured every 2–3 days using calipers. Tumor volumes were calculated as V = (π/6 × length × width × height). Hepatic index was estimated as (liver weight/mouse weight) × 100% and as 5.0% for healthy CBA mice. Tumor doubling time (DT) was estimated as DT = (t − t0) × ln 2/(ln V − ln V0), where (t − t0) indicates the length of time between two measurements of tumor size and V0 and V denote the tumor volume at two points of the measurement ([Ozono et al., 2004]).
Supplementary Table 2. Hepatic indexes of mice implanted with RLS40 treated with antisense
oligonucleotides, control luc-POC and miR-21-miRNase
Type of treatment Hepatic index, %* p-value (vs control)
* – Mean ± SE; s.i. – statistically insignificant
Hepatic index was estimated as (liver weight/mouse weight) × 100% and as 5.0% for healthy CBA
The MDR status of RLS40 may add to the burden on the liver, when this type of tumor
metastasizes into the liver (Sen’kova et al., 2012). Ex vivo treatment of RLS40 cells by
oligonucleotides and miRNase avoids the toxic effect of antisense oligonucleotides, their conjugates
and transfection reagents directly on the tumor-bearing animal. This may allow consideration of
whether the decrease of migration activity of tumor cells translated into reduced metastatic burden of
RLS40 on the liver. Treatment of the cells seeding the tumor may not reduce migration and […]

miR-21 = assay: Cleavage of 5′-[32P]-labeled miR-21 by miR-21-miRNase and/or RNase H in multiple turnover conditions; format: biochemical; settings: for Level of cleavage of miR-21 by miRNase alone: 5- or 10-fold excess of target; for Level of cleavage of miR-21 by miRNase alone / τ/2, half-life time of miR-21: miRNase 5 µM, 37°C
Method: Unlabeled miR-21 (10 µM, 25 µM, or 50 µM) and 10^5 cpm (Cherenkov’s counting) of [^32P]-miR-21 was incubated at 37°C with either miR-21-miRNase (5 µM) or RNase H (100 U/ml, plus 5 µM of either h-ODN or miR-21-miRNase) in buffer (20 mM Tris-HCl, pH 7.8, 40 mM KCl, 8 mM MgCl2, 1 mM DTT). Reactions were quenched by precipitation of RNA with 2% LiClO4 in acetone, and RNA cleavage products quantified in dried gels as described previously ([Patutina et al., 2017a]) using Molecular Imager FX and Quantity One software.
Figure 4 Cleavage of 5’-[^32P]-labeled miR-21 by miR-21-miRNase and/or RNase H. Autoradiographs of 18% polyacrylamide/8 M urea gel, showing the patterns of cleavage of miR-21 at its 2- (A), 5- (C), and 10-fold (E) molar excess over miR-21-miRNase or h-ODN. […] Duplexes formed by 5′-[^32P]-miR-21 (10, 25, and 50 µM) and h-ODN or miRNase (5 µM) were incubated at 37°C for 24–72 h. Lanes Im and T1: imidazole ladder and partial RNA digestion with RNase T1, respectively; “control”: RNA was incubated in the absence of oligonucleotide or conjugate and in the presence of RNase H (100 U/ml). Diagrams (B), (D), and (F) show time dependency of cleavage of miR-21 by miR-21-miRNase alone, by a synergetic action of miR-21-miRNase and RNase H, or by RNase H (100 U/ml) alone when miR-21 was in a complex with h-ODN at 2-, 5- and 10-fold molar excess of miR-21 over miR-21-miRNase or h-ODN, respectively. (G) Positions of miR-21 cleavage induced by miR-21-miRNase (red arrows), RNase H in the duplex with h-ODN (black arrows), and by combination of miR-21-miRNase and RNase H. (H) The hypothetical representation of miR-21 cleavage by a combination of miRNase and RNase H.

RLS40 lymphosarcoma [2] = assay: Tumor transplantation assay: RLS40 cells treated ex vivo, then inoculated intramuscularly; format: in vivo, CBA mice; settings: for Tumor doubling time, DT: DT = (t − t0) × ln 2/(ln V − ln V0)
Method: as §1
Figure 3 Antitumor effect of miR-21-specific miRNase. (A) Retardation of RLS40 growth in vivo after treatment of RLS40 cells with antisense oligonucleotides, control conjugate (luc-POC), or miR-21-miRNase. (B) Tumor volume on day 19 after RLS40 transplantation. Mice were injected with RLS40 cells either without any treatment (w/t) or treated with Lipofectamine (LF), commercial miR-21 inhibitor at concentration 0.1 µM (Inh 0.1, recommended) and 1 µM (Inh 1, in accordance to concentration of miRNase used in the study), control conjugate (luc-POC, 1 µM), hairpin 2′OMe oligonucleotide (2′-OMe, 1 µM), hairpin antisense oligonucleotide (h-ODN, 1 µM) or miR-21-specific miRNase (miR-21-miRNase, 1 µM). Data were statistically analyzed using two-way ANOVA with post hoc Tukey test. Data are presented as mean ± s.e. p-value indicates a statistically reliable difference. (C) Doubling time of RLS40 tumors after treatment with oligonucleotides and conjugates. TEXT PRINTED IN THE PICTURE: (C) untreated: DT, days: 2,45±0,49 | (C) LF: DT, days: 2,48±0,35 | (C) Inh 0.1: DT, days: 2,56±0,59 | (C) Inh 1: DT, days: 13,90±0,46 | (C) 2’-OMe: DT, days: 3,17±1,45 | (C) luc-POC: DT, days: 2,40±0,45 | (C) h-ODN: DT, days: 3,00±1,83 | (C) miR-21-miRNase: DT, days: 12,77±0,34

[3] = cells treated with 1 µM before transplantation

- Factor by which RNase H elevated cleavage of miR-21 (from τ/2) (miR-21; 2-fold excess of miR-21): 14.9 times
- Factor by which RNase H elevated cleavage of miR-21 (from τ/2) (miR-21; 5-fold excess of miR-21): 3.0 times
- Factor by which RNase H elevated cleavage of miR-21 (from τ/2) (miR-21; 10-fold excess of miR-21): 2.4 times
- Incubation time to complete (∼100%) RNA degradation (miR-21; miR-21-miRNase 5 µM with RNase H 100 U/ml, 2-fold excess of miR-21): 8 h
- Incubation time to complete RNA degradation (miR-21; miR-21-miRNase 5 µM with RNase H 100 U/ml, 5-fold excess of miR-21): 24 h
- Incubation time to complete RNA degradation (miR-21; miR-21-miRNase 5 µM with RNase H 100 U/ml, 10-fold excess of miR-21): ≤ 48 h
- Level of cleavage of miR-21 by miRNase alone (miR-21; over 24 h, irrespective of 2-): 65–68%
- Level of cleavage of miR-21 by miRNase alone (miR-21; over 72 h, 2-): 90%
- τ/2, half-life time of miR-21 (miR-21; with RNase H 100 U/ml, miR-21 10 µM (2-fold RNA excess), pH 7.8): 0.7 ± 0.2 h
- τ/2, half-life time of miR-21 (miR-21; with RNase H 100 U/ml, miR-21 25 µM (5-fold RNA excess), pH 7.8): 5.4 ± 0.4 h
- τ/2, half-life time of miR-21 (miR-21; with RNase H 100 U/ml, miR-21 50 µM (10-fold RNA excess), pH 7.8): 4.7 ± 0.4 h
- τ/2, half-life time of miR-21 (miR-21; without RNase H, miR-21 10 µM (2-fold RNA excess), Tris-HCl pH 7.8, 40 mM KCl, 8 mM MgCl2, 1 mM DTT, time for 50% cleavage): 10.4 ± 0.5 h
- τ/2, half-life time of miR-21 (miR-21; without RNase H, miR-21 25 µM (5-fold RNA excess), pH 7.8): 16.2 ± 1.5 h
- τ/2, half-life time of miR-21 (miR-21; without RNase H, miR-21 50 µM (10-fold RNA excess), pH 7.8): 11.04 ± 0.8 h
Substance: acetyl-[(LeuArg)2Gly]2-aminohexyl-AGTCTGATAAGCTACAAGTCAGCGAAAGCTGACTTG [miR-21-miRNase, peptide acetyl-[(LeuArg)2Gly]2 conjugated through aminohexyl linker to 5′-end of miR-21-targeted hairpin oligodeoxyribonucleotide]
- Hepatic index (RLS40 lymphosarcoma [1]): 5.1±0.16%
- Factor by which RNase H enhanced the catalytic turnover (miR-21; 2-fold excess of miR-21): 15.6 times
- Factor by which RNase H enhanced the catalytic turnover (miR-21; 5-fold excess of miR-21): 7.0 times
- Factor by which RNase H enhanced the catalytic turnover (miR-21; 10-fold excess of miR-21): 4.6 times
- Increase of tumor doubling time over untreated control (w/t) (RLS40 lymphosarcoma [2]; [3]): > 5 fold
- Tumor doubling time, DT (RLS40 lymphosarcoma [2]; [3]): 12,77±0,34 days and 12.77 days

Substance: h-ODN: miR-21-targeted hairpin deoxyribooligonucleotide AGTCTGATAAGCTACAAGTCAGCGAAAGCTGACTTG, unconjugated with the peptide (DNA, backbone and methylation of C not given here; hairpin at 3' end, unconjugated)
- Hepatic index (RLS40 lymphosarcoma [1]): 5.23±0.17%
- Total extent of miR-21 cleavage in heteroduplex with h-ODN by RNase H alone (miR-21; RNase H 100 U/ml, h-ODN 5 µM, 2-fold excess of miR-21, plateau by 30 min): 45%
- Extent of miR-21 cleavage in heteroduplex with h-ODN by RNase H alone (miR-21; RNase H 100 U/ml, h-ODN 5 µM, 5-fold excess of miR-21): about 10%
- Extent of miR-21 cleavage in heteroduplex with h-ODN by RNase H alone (miR-21; RNase H 100 U/ml, h-ODN 5 µM, 10-fold excess of miR-21): ~5%
- Retardation of tumor growth, mean tumor volume times less than in the control group (RLS40 lymphosarcoma [2]; cells transfected once with 1 µM for 4 h, 2 × 10^6 cells i.m. into CBA mice, day 19): about 2 fold
- Tumor doubling time against w/t (in words) (RLS40 lymphosarcoma [2]; [3]): did not show a statistically significant difference
- Tumor doubling time, DT (RLS40 lymphosarcoma [2]; [3]): 3,00±1,83 days
